Measured values as given in patent publication US20210017555A1, “METHOD FOR PRODUCING 4-AMINOCINNAMIC ACID, AND VECTOR AND HOST CELL USED IN SAME” (JAPAN SCIENCE AND TECHNOLOGY AGENCY, priority 2018, published 2021).

How the values were obtained:
[1] = Resting-cell reaction of PAL-producing E. coli, 4-nitrophenylalanine to 4-nitrocinnamic acid; format: cell-based, Escherichia coli; details: resting cells; for amount of 4-nitrocinnamic acid in the reaction supernatant: 24 hours, 28° C., pH 8.5, 20 mM 4-nitrophenylalanine, versus control Escherichia coli
Experimental: The CamPAL-, LiePAL-, and RgPAL-producing Escherichia coli strains mentioned above were precultured using 3 mL of LB medium containing 40 mg/L kanamycin sulfate at 28° C. for 16 hours with stirring at 300 rpm. 1 mL of this pre-cultured liquid was inoculated to 100 mL of LB medium containing 40 mg/L of kanamycin sulfate, cultured at 30° C. for 4 hours with shaking at 120 rpm, and after the addition of 0.5 mM of IPTG, incubated further for 20 hours. The obtained bacterial cells were washed twice with a reaction buffer (100 mM Tris-HCl buffer, pH 8.5).
The resting cells obtained were suspended in a reaction buffer and reacted at 28° C. with shaking at 300 rpm. 20 mM of 4-nitrophenylalanine was added to the medium every 24 hours while the reaction was continued. The reaction supernatant was periodically collected to quantify 4-nitrophenylalanine and 4-nitrocinnamic acid.
The supernatant was transferred to a centrifuge tube, collected by centrifugation, and the reaction product was quantified using high performance liquid chromatography (HPLC).
The same experiment was also performed using the host Escherichia coli as a control.

[2] = Deammonase activity of purified enzymes by absorptiometry; format: biochemical; details: purified recombinant enzyme 2 mg/mL, 50 mM Tris-HCl pH 8.6, 0.3 to 9.6 mM substrate, 380 nm, 10 minutes
Experimental: • Apparatus: BECKMAN COULTER DU800 UV/Vis Spectrophotometer • Amount of enzyme: 2mg/mL • Buffer solution: 50mM Tris-HCl buffer (pH=8.6) • Concentration of substrate: 0.3mM to 9.6mM • Volume: 200μL • Measurement wavelength: From 4-nitrophenylalanine to 380 nm 4-nitrocinnamic acid: From phenylalanine to 305 nm cinnamic acid: • Measurement period: 10 minutes • Measurement temperature: 25° C.
Each of the CamPAL-, LiePAL-, and RgPAL-producing Escherichia coli strains was inoculated to 5 mL of LB medium containing 30 mg/L kanamycin sulfate, and cultured at 28° C. for 16 hours (hereinafter also may be referred to as “preculture”). […]
The enzyme activity was measured and quantified by measuring the absorbance of the reaction product at the absorption wavelength for 10 minutes using an absorptiometer.
Specifically, regarding the deammonase activity for phenylalanine, 2 mg/mL of each of the above enzymes was added to 50 mM Tris-HCl buffer (pH=8.6) containing 0.3 to 9.6 mM phenylalanine to cause reaction, and the change in absorbance at a wavelength of 305 nm resulting from the formation of cinnamic acid was measured for 10 minutes. […]

[3] = Conversion of 4-nitrophenylalanine to 4-aminocinnamic acid in 1 L jar fermenter; format: cell-based, Escherichia coli; details: glycerol 10%, pH 8.5, 37° C., 36 hours, air flow 0.02 L/min
Experimental: Conversion of 4-nitrophenylalanine to 4-aminocinnamic acid was carried out using a 1 L jar fermenter (manufactured by Biott: BMJ-01), in the presence of glycerol under the conditions mentioned above. Specifically, 5 mL of the preculture liquid of Example 2 was inoculated to a 1 L jar fermenter containing 0.5 L of TB medium supplemented with 80 mg/L kanamycin sulfate, and cultured at 30° C. for 4 hours, with aeration at 0.7 L/min and stirring at 645 rpm. 0.1 mM IPTG was then added, and the culturing was continued for another 20 hours.
After the completion of the culturing, 7 g/L of 4-nitrophenylalanine and glycerol at a final concentration of 10% were added to the culture solution, and the pH was adjusted to 8.5 with 2N NaOH. The reaction was carried out at 37° C. for 36 hours with an air flow rate of 0.02 L/min and stirring at 645 rpm. When the pH dropped below 8.0, 2N NaOH was added. During the reaction, the reaction solution was sampled, and 4-nitrophenylalanine, 4-nitrocinnamic acid and 4-aminocinnamic acid were quantified.

[4] = Conversion efficiency by CamPAL at different bacteria mass and substrate mass (resting cells); format: cell-based, Escherichia coli; details: cell mass 20 g/L or 30 g/L, substrate mass 21 g/L, 37° C., pH 8.5, 24 hours
Experimental: The CamPAL-producing Escherichia coli strain described in Example 1 was precultured using 5 mL of LB medium containing 40 mg/L kanamycin sulfate at 28° C. for 16 hours with stirring at 300 rpm. 1 mL of this pre-cultured solution was inoculated to 100 mL of TB medium having the following composition after the addition of 80 mg/L kanamycin sulfate, and cultured at 30° C. for 4 hours with shaking at 120 rpm. After the addition of 0.1 mM of IPTG, the cells were further cultured for 20 hours, recovered from the culture solution by centrifugation, and stored at −80° C. The frozen cells thus obtained were weighed at 10 g/L, 20 g/L and 30 g/L, while the substrate 4-nitrophenylalanine was also weighed at 4.2 g/L, 21 g/L, and 42 g/L.
Each mass of the cells and each mass of the substrate were suspended in a reaction buffer (100 mM Tris-HCl buffer, pH 8.5), and a resting microbial cell reaction was carried out at 37° C. with stirring at 300 rpm. After the reaction for 24 hours, the reaction solution was collected, and the amounts of 4-nitrophenylalanine and 4-nitrocinnamic acid were quantified. For the quantification of each reaction product, the supernatant of the obtained (bacterial cell) reaction solution was transferred to a centrifuge tube, collected by centrifugation, and the reaction product was quantified using the HPLC mentioned above.

[5] = Search for carbon source for conversion of 4-nitrocinnamic acid to 4-aminocinnamic acid; format: cell-based, Escherichia coli; details: glycerol added at 10% (compared with glucose, fructose), 2 g/L 4-nitrocinnamic acid, pH 8, 37° C., 24 hours
Experimental: The CamPAL-producing Escherichia coli strain described in Example 1 was first precultured for 16 hours in the same manner as in Example 2. 1 mL of this pre-cultured liquid was inoculated to 100 mL of TB medium containing 80 mg/L kanamycin sulfate, cultured at 30° C. for 4 hours with stirring at 120 rpm, and after the addition of 0.1 mM IPTG, cultured further for 16 hours. 2 g/L of 4-nitrocinnamic acid was added to the resultant culture solution, the pH was adjusted to 8 using 2N NaOH, and glucose, fructose, or glycerol was added as a carbon source at a final concentration of 10%. The cells were cultured at 37° C. for 24 hours with stirring at 300 rpm to cause reaction.
During the reaction, the reaction solution was collected, and 4-aminocinnamic acid was quantified. Specifically, the reaction solution was transferred to a centrifuge tube, the supernatant was recovered by centrifugation, and the reaction product was quantified using the HPLC.

[6] = Conversion of 4-nitrophenylalanine to 4-nitrocinnamic acid in 2 L jar fermenter; format: cell-based, Escherichia coli; details: 24 hours
Experimental: The CamPAL-producing Escherichia coli strain described in Example 1 was used (cell mass: 20 g/L to 30 g/L) was used in a reaction of converting the substrate 4-nitrophenylalanine (group weight 21 g/L) to 4-nitrocinnamic acid, using a 2 L jar fermenter (BNR-C-2LS manufactured by Maruhishi Bio Engineering Co., Ltd.) as a reactor.
Specifically, the CamPAL-producing Escherichia coli strain was precultured using 15 mL of LB medium with […] kanamycin sulfate at 28° C. for 16 hours with stirring at 300 rpm. 12 mL of this preculture liquid was inoculated to a 2 L jar fermenter containing 1.2 L TB medium with 80 mg/L kanamycin sulfate, and cultured at 30° C. for 4 hours with aeration of 3.5 L/min and stirring at 500 rpm. […] The mass of bacterial cells calculated from the value of OD600 was 30 g/L.
After completion of the culture, 21 g/L of 4-nitrophenylalanine was added to the culture medium as the substrate, and the pH was adjusted to 8.5 using a 2N NaOH aqueous solution. […] The reaction solution was collected during the reaction, and 4-nitrophenylalanine and 4-nitrocinnamic acid were quantified as follows: the reaction solution was transferred to a centrifuge tube, the supernatant was recovered by centrifugation, and the reaction product was quantified using HPLC under the above conditions.

| Substance | amount of 4-nitrocinnamic acid in the reaction supernatant [1] | capacity to convert 4-nitrophenylalanine to 4-nitrocinnamic acid [2] | 4-aminocinnamic acid produced from 7 g/L of 4-nitrophenylalanine [3] [g/L] | conversion efficiency of 4-nitrophenylalanine to 4-nitrocinnamic acid (yield) [4] [%] | amount of 4-aminocinnamic acid obtained [5] | conversion of 4-nitrophenylalanine to 4-nitrocinnamic acid over time ([1]; 20 mM 4-nitrophenylalanine added every 24 hours) | 4-nitrocinnamic acid converted from 21 g/L of 4-nitrophenylalanine ([6]; 2 L jar fermenter, cell mass 30 g/L, pH 8.5, 37° C., without aeration) [g/L] | 4-nitrocinnamic acid converted from 21 g/L of 4-nitrophenylalanine ([6]; same reaction, aeration rate 0.04 L/min) [g/L] |
| --- | --- | --- | --- | --- | --- | --- | --- | --- |
| LiePAL: phenylalanine ammonia-lyase derived from Lithospermum erythrorhizon, SEQ ID NO:3, expressed in E. coli | significantly higher than that of the control Escherichia coli | have a capacity to covert 4-nitrophenylalanine to 4-nitrocinnamic acid | – | – | – | – | – | – |
| CamPAL: phenylalanine ammonia-lyase derived from Camellia sinensis, SEQ ID NO: 1, expressed in E. coli BL21(DE3) | significantly higher than that of the control Escherichia coli | have a capacity to covert 4-nitrophenylalanine to 4-nitrocinnamic acid | 4.7 | ≥ 60 | largest amount of 4-aminocinnamic acid was obtained when glycerol was added | proceeded continuously | 18 | 12 |
